# Test results as given in PubChem BioAssay AID2060336 (Molecular Pharmacology Branch, DTP, NCI, 2025).
# System: 958767-090-R-J1-PDC spheroid growth
# Test: Anticancer human tumor 958767-090-R-J1-PDC patient-derived head and neck squamous carcinoma cell line growth inhibition [IpAb]
# Settings: spheroids with HUVEC and MSC; for IC50: curve of first compound; for viability, T/C: stronger effect = lower value
# Text: Combinatorial screen of targeted agents with ipatasertib and abemaciclib in multi-cell type tumor spheroids
# A high-throughput screen of multi-cell type tumor spheroids was designed to identify active combinations of targeted small molecules and ipatasertib or abemaciclib. Complex spheroids include a stromal component modeled by human endothelial cells (HUVEC) and fibroblasts modeled by human mesenchymal stem cells (MSCs). The concentration ranges selected for each drug and investigational agent were based upon clinically achievable concentrations if the clinical Cmax of the agent was known.
# Compounds. The drugs and investigational agents: ipatasertib (NSC767898), abemaciclib(NSC768073), selumetinib (NSC741078), trametinib (758246), adavosertib (NSC754352), everolimus (NSC733504), sapanisertib (NSC764658), vemurafenib (NSC761431), venetoclax (NSC766270), copanlisib (NSC809693), apelisib (NSC765974), palbociblib (NSC758247), vemurafenib (NSC761431), dabrafenib (NSC764134), ravoxertinib (NSC781343), BMS-387032 (NSC767048), sotorasib (NSC818433), talazoparib (NSC767125) and afursertib (NSC778305), were obtained from the National Cancer Institute (NCI) Developmental Therapeutics Program Chemical Repository. The FDA-approved anticancer drug set is available from the NCI Developmental Therapeutics Program. […] The stock solutions were prepared in dimethyl sulfoxide (DMSO, Sigma-Aldrich, St. Louis, MO, cat. D2650) at 800-fold the tested concentration and stored at -70 degrees C prior to their use. All drugs and investigational agents were tested over a range starting from a high concentration at or near the clinical Cmax and decreasing in half-log increments. If the clinical Cmax for an agent had not been determined, the highest concentration tested was 10 microM.
# NCI60 Cell Culture. NCI60 cell lines were obtained from the NCI Developmental Therapeutics Program Tumor Repository. For each lot of cells, the Repository performed Applied Biosystems AmpFLSTR Identifiler testing with PCR amplification to confirm consistency with the published Identifier STR profile for each cell line. Cells were kept in continuous culture for no more than 20 passages. The optimal seeding densities for each of the cell lines at each time point assessed were determined prior to performing the concentration response studies. Briefly, the NCI60 human tumor lines were grown as monolayers in RPMI 1640 medium supplemented with 10% FBS and 2 mmol/L L-glutamine.
# An additional 9 lines were from the NCI60 cell line panel including MDA-MB-231 breast carcinoma, MDA-MB-468 breast carcinoma, MCF7 breast carcinoma, Hs578T breast carcinoma, MALME-3M melanoma, SK-MEL-2 melanoma, SK-OV-3 ovarian carcinoma, DU-145 prostate carcinoma, PC-3 prostate carcinoma, all cell lines along with major genetic alterations are listed on Table 2. Pooled donor human umbilical vein endothelial cells (HUVEC, Lonza, cat. CC-2519) and human mesenchymal stem cells (hMSC, Lonza, cat. PT-2501) were purchased from Lonza (Walkersville, MD).
# PDMR cell lines were grown in complete medium (DC medium): Dulbecco's modified Eagle's medium (DMEM)/F12 supplemented with 5% fetal bovine serum (FBS), 2 mM L-glutamine, 100 U/mL penicillin and 100 µg/ml streptomycin, 0.4 µg/ml hydrocortisone, 10 ng/ml epidermal growth factor (EGF) recombinant human protein, 24 µg/mL adenine, and 0.1 mg/mL primocin. During culture from frozen stock vials, PDMR cells were cultured in the same medium containing 10 µM Y-27632 (see Table 3). The PDCs were cultured in complete DMEM/F12 media without 10 microM Y-27632 dihydrochloride for at least two passages prior to the screen. The pooled donor HUVEC and hMSC were cultured in endothelial cell growth medium 2 (PromoCell, Heidelberg, Germany, cat. C-22011) and mesenchymal stem cell growth medium 2 (PromoCell, cat. C-28009), respectively. For all experiments, HUVEC and hMSC were used at passages </=5.
# […]
# 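Further: spheroids exposed to agents for 7 days.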
# 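Wherever viability, T/C is given: 100% = DMSO vehicle control wells.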
smiles,measurement,setting,value
C=CCn1c(=O)c2cnc(Nc3ccc(N4CCN(C)CC4)cc3)nc2n1-c1cccc(C(C)(C)O)n1 + CC(C)NCC(C(=O)N1CCN(c2ncnc3c2C(C)CC3O)CC1)c1ccc(Cl)cc1,IC50,second compound 0.1 µM,179 nM
same,IC50,second compound 0.316 µM,85 nM
same,IC50,second compound 1 µM,45.5 nM
same,IC50,second compound 3.16 µM,45.9 nM
same,IC50,second compound 10 µM,< 31.6 nM
same,"viability, T/C","second compound 0.1 µM, first compound 0.0316 µM",88.2%
same,"viability, T/C","second compound 0.1 µM, first compound 0.1 µM",65%
same,"viability, T/C","second compound 0.1 µM, first compound 0.316 µM",35%
same,"viability, T/C","second compound 0.1 µM, first compound 1 µM",25%
same,"viability, T/C","second compound 0.1 µM, first compound 3.16 µM",23.7%
same,"viability, T/C","second compound 0.1 µM, first compound 10 µM",19.6%
same,"viability, T/C","second compound 0.316 µM, first compound 0.0316 µM",64.1%
same,"viability, T/C","second compound 0.316 µM, first compound 0.1 µM",47.7%
same,"viability, T/C","second compound 0.316 µM, first compound 0.316 µM",24.2%
same,"viability, T/C","second compound 0.316 µM, first compound 1 µM",17%
same,"viability, T/C","second compound 0.316 µM, first compound 3.16 µM",17.8%
same,"viability, T/C","second compound 0.316 µM, first compound 10 µM",15.2%
same,"viability, T/C","second compound 1 µM, first compound 0.0316 µM",52.1%
same,"viability, T/C","second compound 1 µM, first compound 0.1 µM",45.4%
same,"viability, T/C","second compound 1 µM, first compound 0.316 µM",23.5%
same,"viability, T/C","second compound 1 µM, first compound 1 µM",15.6%
same,"viability, T/C","second compound 1 µM, first compound 3.16 µM",16.9%
same,"viability, T/C","second compound 1 µM, first compound 10 µM",13%
same,"viability, T/C","second compound 3.16 µM, first compound 0.0316 µM",55%
same,"viability, T/C","second compound 3.16 µM, first compound 0.1 µM",39.6%
same,"viability, T/C","second compound 3.16 µM, first compound 0.316 µM",22.2%
same,"viability, T/C","second compound 3.16 µM, first compound 1 µM",16.2%
same,"viability, T/C","second compound 3.16 µM, first compound 3.16 µM",14.8%
same,"viability, T/C","second compound 3.16 µM, first compound 10 µM",11.9%
same,"viability, T/C","second compound 10 µM, first compound 0.0316 µM",39.1%
same,"viability, T/C","second compound 10 µM, first compound 0.1 µM",32.4%
same,"viability, T/C","second compound 10 µM, first compound 0.316 µM",17.9%
same,"viability, T/C","second compound 10 µM, first compound 1 µM",13.9%
same,"viability, T/C","second compound 10 µM, first compound 3.16 µM",13.6%
same,"viability, T/C","second compound 10 µM, first compound 10 µM",7.78%
